Measurements: publication PMC8072931, “Thermodynamic Evaluation of the Interactions between Anticancer Pt(II) Complexes and Model Proteins” (Molecules, 2021)

Columns and labels:
[1] = target: T1, hen egg-white lysozyme (HEWL) (Gallus gallus, UniProt P00698); experiment: UV-Vis absorbance titration (binding constant K), […]; DSC; ESI-MS; details: read-out: K (M^-1) ^1
T1 construct: gene LYZ

[2] = target: T1, hen egg-white lysozyme (HEWL); experiment: UV-Vis absorbance titration (binding constant K), […]; DSC (no adduct seen in ESI-MS); details: read-out: K (M^-1) ^1

T1 sequence (P00698 19-147): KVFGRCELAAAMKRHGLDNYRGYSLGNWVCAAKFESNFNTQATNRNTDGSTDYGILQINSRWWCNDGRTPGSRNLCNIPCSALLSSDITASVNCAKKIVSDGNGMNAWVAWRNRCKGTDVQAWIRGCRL

| Structure (SMILES) | Kd [1] [µM] | Kd [2] [µM] |
| --- | --- | --- |
| O=S(=O)(O)C(F)(F)F.[Cl][Pt-2]12[n+]3ccccc3-c3cc(-c4ccccc4)cc([n+]31)-c1cccc[n+]12 [compound 1, [PtCl(4′-phenyl-2,2′:6′,2″-terpyridine)](CF3SO3)] | 58.8 |  |
| O=S(=O)(O)C(F)(F)F.[I][Pt-2]12[n+]3ccccc3-c3cc(-c4ccccc4)cc([n+]31)-c1cccc[n+]12 [compound 2, [PtI(4′-phenyl-2,2′:6′,2″-terpyridine)](CF3SO3)] |  | 83.3 |
